Results on 1 substance are retold here after patent publication US11904038B2 (INDUSTRY-ACADEMIC COOPERATION FOUNDATION, YONSEI UNIVERSITY, priority 2017, dated 2024).

Test [1] concerns LEF. The test is described as follows: RT-PCR mRNA expression of LEF. Format: cell-based, human. Particulars: phellandrene 20 μM, 24 hours, FIG. 6. On the procedure: (§1) 24 hours after the treatment, the cells were collected and total RNA was extracted with Trizol Reagent (Gibco BRL, USA). The total RNA was quantified by absorbance measurement at 260 nm.
(§2) After isolation of RNA, cDNA was synthesized by performing reverse transcription using oligo dT primers and SuperScript reverse transcriptase (GIBCOBRL, Gaithersburg, MD, USA). PCR was performed using, as a template, cDNA obtained through reverse transcription and using, as primers, 5′ and 3′ flanking sequences of the gene's cDNA to be amplified. Here, required primers were obtained by making a request for synthesis with a company specializing in primer manufacturing (BIONEER CORPORATION, Korea) and used. To a mixture obtained by mixing of 5 μl of 10× reaction buffer [100 mM KCL, 20 mM Tris-HCl (pH 8.0), 2.5 mM MgCl2], 4 μl of 10 mM dNTP, and 1 μl each of 0.2 μM sense and antisense primers, were added 2 μl of the completed cDNA reaction mixture and 2.5 unit of Taq polymerase (Takara, Japan). Then, the volume was adjusted with 50 μl of distilled water, and PCR was performed using a PCR instrument. PCR conditions were set to 94° C. for 4 minutes, 94° C. (30 seconds), 30 cycles of [52° C. (30 seconds), 72° C. (45 seconds)], and 72° C. for 10 minutes.

Test [2] concerns cAMP. The test is described as follows: cAMP complete ELISA. It is filed as cell-based, human. Particulars: phellandrene 20 μM, 24 hours, vs DMSO, FIG. 4. On the procedure:
(§3) DMSO was used as a negative control group. The phellandrene-treated culture solutions were collected after 24 hours, and experiments were conducted using human VEGF ELISA Kit (Enzo Life Sciences, NY, USA), human IGF-1 ELISA kit (Enzo Life Sciences, NY, USA), and cAMP complete ELISA kit (Enzo Life Sciences, NY, USA), respectively, according to the manufacturers' protocol.

For test [3], the system named is neutrophil migration and mast cell stabilization. Particulars: Siqueira et al. 2016; cited from earlier work.
The subject of test [4] is VEGF. Kind of test: RT-PCR mRNA expression of VEGF. Format: cell-based, human. The following applies: phellandrene 20 μM, 24 hours, FIG. 6. On the procedure: as §1, §2
Test [5] has as its system VEGF. Kind of test: human VEGF ELISA of culture solutions. Format: cell-based. The following applies: phellandrene 20 μM, 24 hours, vs DMSO, (A) of FIG. 3. On the procedure:
as §3
(ELISA stands for enzyme-linked immunosorbent assay.)

Test [6] deals with PKA Cα. The test is described as follows: Western blot analysis of PKA Cα. It is filed as cell-based, human. Particulars: phellandrene 20 μM, protein, (A) of FIG. 5. On the procedure:
(§4) Protein quantification was performed by Bradford assay.
(§5) 40 μg of the protein was electrophoresed on 10% SDS polyacrylamide gel and then transferred to nitrocellulose membranes. The protein was allowed to react with each of PKA Cα, β-catenin, β-actin, and GAPDH antibody (Cell Signaling Technology, Danvers, MA, USA). Each protein's signal was visualized with a chemiluminescent detection system (Amersham), and then the band's thickness was quantified using the Quantity One Analysis Software (Bio-Rad Laboratories).
In general terms: A western blot detects proteins with antibodies after separation by electrophoresis.

The test system of test [7] is Cyc-D. Kind of test: RT-PCR mRNA expression of Cyc-D. Format: cell-based, human. The following applies: phellandrene 20 μM, 24 hours, FIG. 6. On the procedure:
as §1, §2

Test [8] deals with IGF-1. Kind of test: human IGF-1 ELISA of culture solutions. Particulars: phellandrene 20 μM, 24 hours, vs DMSO, (B) of FIG. 3. Format: cell-based. On the procedure: as §3
The subject of test [9] is β-catenin. Kind of test: Western blot analysis of β-catenin. It is filed as cell-based, human. Particulars: phellandrene 20 μM, protein, (B) of FIG. 5. On the procedure:
as §4, §5

In test [10] the test system is IGF-1. The test is described as follows: RT-PCR mRNA expression of IGF-1. Format: cell-based, human. Particulars: phellandrene 20 μM, 24 hours, FIG. 6. On the procedure: as §1, §2
The test system of test [11] is human hair dermal papilla cells. The test is described as follows: MTT assay: cell viability and proliferation in human hair dermal papilla cells. Particulars: FIG. 2. In general terms: Formazan colour is commonly taken as a measure of viable cells.
Method: Human hair dermal papilla cells were purchased from PromoCell GmbH (Heidelberg, Germany). The human hair dermal papilla cells were cultured in an incubator at 37° C., 5% CO2 using HFDPC medium (PromoCell, Germany) with fetal bovine serum (FBS) and Dulbecco's modified Eagle's medium (DMEM; Gibco BRL, Gaithersburg, MD, USA). Due to the nature of the cells, cells at passages 2 to 5 were used for all experiments.
The human hair dermal papilla cells were dispensed into 24-well plates to 1×10^5 cells/well, and then cultured for 24 hours in an incubator at 37° C., 5% CO2 so that the cells are stabilized. Treatment with samples at respective concentrations (0, 10, 20, 50, 100, 200, 400 μg/ml) was performed and culture was performed for 24 hours. Then, treatment with 100 ul of 3-(4,5-dimethylthiazol-2-yl)-2,5-diphenyltetrazolium bromide (MTT; Sigma Aldrich, St. Louis, USA) reagent at a concentration of 200 mg/ml was performed and culture was performed again for 4 hours. After removing the medium, the precipitate (formazan) was dissolved in DMSO and the absorbance was measured at a wavelength of 540 nm. A proliferation rate thereof was evaluated based on the absorbance of a control group containing only DMSO.
The group containing only DMSO was set as a control group. […] Then, culture was performed for 24 hours, and cell viability was measured through an MTT assay.
Test [12] concerns WEHI-3 murine leukemia cells. Particulars: in vitro, Lin et al. 2015; cited from earlier work.

On to phellandrene, for which the “increase in mRNA expression of LEF” value in test [1] was 348%. For the same substance, the “increase in cAMP concentration” value in [2] is 30%. For the same substance, the “known physiological function: anti-inflammatory” value in test [3] was “serve as an anti-inflammatory agent”. Besides, in test [4], the “increase in mRNA expression of VEGF” value amounted to 247%. The “increase in concentration of VEGF” value in test [5] worked out at 27%. Besides, the “increase in expression of PKA Cα” value in [6] was 42%. Moreover, the “increase in mRNA expression of Cyc-D” value in [7] is recorded as 250%. The “increase in concentration of IGF-1” value in test [8] stood at 18%. The “increase in expression of β-catenin in the cell nucleus” value in test [9] is listed as 30%. The “increase in mRNA expression of IGF” value in test [10] was found to be 217%. The results for the proliferation rate increase in test [11] (phellandrene 10 μM), in test [11] (phellandrene 20 μM) and in test [11] (phellandrene 50 μM) were 10.8%, 24% and 18%, respectively. Also, the “known physiological function: apoptosis in leukemia cells” value in [12] is given as “induce apoptosis in leukemia cells”.
